Common to all, as to format: functional, cell-based
In one test the test system is CT26. Put plainly: Antiproliferative activity against mouse CT26 cells harboring KRAS G12D mutant assessed as inhibition of cell viability after 24 hrs by MTT assay. As to conditions: CT26, 24 h.
For the next test, the system named is PANC-1. Put plainly: Antiproliferative activity against human PANC1 cells harboring KRAS G12D mutant assessed as inhibition of cell viability after 24 hrs by MTT assay. As to conditions: PANC-1, 24 h. Background: Tetrazolium dyes change colour on reduction, which living cells bring about.
A further test deals with SW1990. Put plainly: Antiproliferative activity against human SW1990 cells harboring KRAS G12D mutant assessed as inhibition of cell viability after 24 hrs by MTT assay. As to conditions: SW1990, 24 h.
A further test has as its system HeLa. Briefly: Antiproliferative activity against human HeLa cells harboring wild type KRAS assessed as inhibition of cell viability after 24 hrs by MTT assay.
Another test relates to NCI-H358. Put plainly: Antiproliferative activity against human NCI-H358 cells harboring KRAS G12C mutant assessed as inhibition of cell viability after 24 hrs by MTT assay. The settings on record: NCI-H358, 24 h.
A further test relates to HCT-116. Put plainly: Antiproliferative activity against human HCT-116 cells harboring KRAS G13D mutant assessed as inhibition of cell viability after 24 hrs by MTT assay. As to conditions: HCT-116, 24 h.

Take `COc1ccc(Cl)c(-c2cc3c(N4CC5CCC(C4)N5)ncnc3s2)c1`: the values for the IC50 with CT26, in the test with PANC-1 and in the test with SW1990 were 8.4 µM, 6.7 µM and 8 µM, respectively.

`COc1cc(Cl)ccc1-c1cc2c(N3CC4CCC(C3)N4)ncnc2s1`: the IC50 – broadly, the concentration at which inhibition is half-maximal – with HeLa stood at 7.7 µM; with CT26 it was 7.2 µM; in the test on NCI-H358, 9.4 µM; with PANC-1 it was 6.8 µM; in the test with HCT-116, 4.9 µM; with SW1990, 9.2 µM.

As to `COc1ccc(-c2cc3c(N4CC5CCC(C4)N5)ncnc3s2)cc1F`, the IC50 in the test with CT26 was found to be 14.1 µM; in the test with PANC-1 it was 10.2 µM; in the test with SW1990 it was 13.3 µM.

Regarding `FC(F)(F)c1ccc(Cl)c(-c2cc3c(N4CC5CCC(C4)N5)ncnc3s2)c1`, the IC50 was 9.7 µM with CT26, 9.4 µM in the test with PANC-1 and 4.2 µM in the test on SW1990.

With `COc1cccc(F)c1-c1cc2c(N3CC4CCC(C3)N4)ncnc2s1`, the IC50 in the test on CT26 came to 17 µM; in the test on PANC-1, 15.2 µM; in the test on SW1990, 18.8 µM.

In the case of `FC(F)(F)c1cc(Cl)cc(-c2cc3c(N4CC5CCC(C4)N5)ncnc3s2)c1`, the IC50 in the test on HeLa was determined as 8.8 µM; in the test with CT26 it was 6.5 µM; in the test on NCI-H358 it was 9.1 µM; in the test with PANC-1, 5.3 µM; with HCT-116, 8.2 µM; in the test on SW1990, 7.7 µM.

As for `COc1cc(-c2cc3c(N4CC5CCC(C4)N5)ncnc3s2)cc(OC)c1OC`, the IC50 in the test on CT26 is 25 µM; in the test on PANC-1, more than 20 µM; with SW1990, more than 20 µM.

Turning to `Clc1ccc(Cl)c(-c2cc3c(N4CC5CCC(C4)N5)ncnc3s2)c1`, the IC50 was 11.3 µM in the test with HeLa; 6.5 µM in the test on CT26; 10.1 µM with NCI-H358; 4.3 µM in the test on PANC-1; 15.9 µM in the test with HCT-116; 7.7 µM in the test with SW1990.

Take `Fc1ccc(F)c(-c2cc3c(N4CC5CCC(C4)N5)ncnc3s2)c1`: the IC50 with HeLa is more than 40 µM; in the test with CT26 it was 11.8 µM; with NCI-H358, 21.5 µM; in the test on PANC-1 it was 6.1 µM; in the test with HCT-116, 27.3 µM; with SW1990, 17.8 µM.

For `C=CC(=O)N1CCN(c2ncnc3c(F)c(-c4c(O)cccc4F)c(Cl)cc23)CC1`, the IC50 was more than 20 µM with HeLa; more than 20 µM with CT26; 0.2 µM in the test on NCI-H358; more than 20 µM in the test on PANC-1; more than 20 µM in the test with HCT-116; more than 20 µM in the test on SW1990.

In the case of `c1ccc(-c2cc3c(N4CC5CC(C4)N5)ncnc3s2)cc1`, the IC50 in the test on CT26 is 40.5 µM; in the test with PANC-1, 30.5 µM; in the test with SW1990, 40.1 µM.

Regarding `c1ccc(-c2cccc3ccccc23)c(-c2cc3c(N4CC5CCC(C4)N5)ncnc3s2)c1`, the IC50 in the test with HeLa was 11.5 µM; in the test on CT26 it was 12.4 µM; with PANC-1 it was 2.8 µM; in the test on HCT-116, 7.9 µM; in the test with SW1990, 7.7 µM.

With `Cc1ccc(-c2cc3c(N4CC5CCC(C4)N5)ncnc3s2)c(Cl)c1`, the results for the half-maximal inhibitory concentration (IC50) with CT26, in the test on PANC-1 and with SW1990 were 13.8 µM, 11.4 µM and 15.8 µM, respectively.

On to `Cc1ccc(-c2cc3c(N4CC5CCC(C4)N5)ncnc3s2)c(C)c1`, for which the IC50 in the test on CT26 was 13.4 µM; in the test with PANC-1, 10.1 µM; in the test on SW1990, 5.9 µM.

Regarding `Fc1cc(-c2cc3c(N4CC5CCC(C4)N5)ncnc3s2)cc(C(F)(F)F)c1`, the figures for the IC50 with CT26, in the test on PANC-1 and in the test on SW1990 were 14.7 µM, 12.9 µM and 7.2 µM, respectively.

For `Clc1ccc(-c2cc3c(N4CC5CCC(C4)N5)ncnc3s2)cc1Cl`, the IC50 with HeLa amounted to 12.5 µM; in the test with CT26, 7.1 µM; with NCI-H358 it was 9.4 µM; in the test with PANC-1, 7.5 µM; in the test with HCT-116, 9.9 µM; in the test with SW1990, 12.1 µM.

Regarding `Fc1cc(-c2cc3c(N4CC5CCC(C4)N5)ncnc3s2)ccc1Cl`, the IC50 is 13 µM in the test with CT26, 24.7 µM in the test with PANC-1 and 15.9 µM with SW1990.

Turning to `O=[N+]([O-])c1ccc(-c2cc3c(N4CC5CCC(C4)N5)ncnc3s2)cc1`, the IC50 is 4.4 µM in the test on CT26, 16.8 µM with PANC-1 and 8.7 µM in the test on SW1990.

For the molecule `COc1ccc(F)cc1-c1cc2c(N3CC4CCC(C3)N4)ncnc2s1`, the values for the IC50 in the test on CT26, in the test with PANC-1 and in the test on SW1990 were 22.6 µM, more than 20 µM and 16.8 µM, respectively.

Regarding `COc1ccc(F)c(-c2cc3c(N4CC5CCC(C4)N5)ncnc3s2)c1`, the IC50 in the test with CT26 was found to be 9.8 µM; in the test on PANC-1, 7.9 µM; with SW1990, 10.2 µM.

As to `Fc1ccc(-c2cc3c(N4CC5CCC(C4)N5)ncnc3s2)c(F)c1`, the IC50 in the test on CT26 came out at 15.6 µM; with PANC-1, 13 µM; with SW1990 it was 13.4 µM.

Turning to `COc1cc(-c2cc3c(N4CC5CCC(C4)N5)ncnc3s2)cc(C(F)(F)F)c1`, the IC50 with HeLa amounted to 10.5 µM; in the test with CT26 it was 7.2 µM; in the test with NCI-H358, 4.5 µM; in the test on PANC-1 it was 7.7 µM; with HCT-116, 8 µM; with SW1990 it was 5.8 µM.

For the molecule `FC(F)(F)c1ccc(-c2cc3c(N4CC5CCC(C4)N5)ncnc3s2)cc1`, the values for the IC50 in the test with CT26, in the test on PANC-1 and in the test with SW1990 were 6.9 µM, 10.3 µM and 6.2 µM, respectively.

Regarding `COc1ccc(Cl)cc1-c1cc2c(N3CC4CCC(C3)N4)ncnc2s1`, the 50% inhibitory concentration (IC50) with HeLa amounted to 8.5 µM; with CT26, 5.7 µM; in the test with NCI-H358, 9.4 µM; in the test with PANC-1 it was 4 µM; in the test on HCT-116, 9.7 µM; in the test with SW1990 it was 4.9 µM.
